We go through one compound from patent US12133895B2, “Biodegradable functional polycarbonate nanoparticle carries for delivering molecular cargo” (International Business Machines Corporation, priority 2018, dated 2024).

This data set is described as follows: Oxidation (discoloration) of AMP in PBS. It is filed as physicochemical. The settings on record: free AMP dissolved in PBS. From the text: FIG. 10 illustrates a diagram of example, non-limiting photos 1000 of a first solution of free AMP and a second solution of the second loaded polymer 602 having the exemplary structure depicted in FIG. 6 (e.g., conjugated with AMP) in accordance with one or more embodiments described herein. Repetitive description of like elements employed in other embodiments described herein is omitted for sake of brevity. As shown in the photos 1000, the right vial contains free AMP dispersed in PBS, and the left vial contains of the second loaded polymer 602 having the exemplary structure depicted in FIG. 6 (e.g., conjugated with AMP) dispersed in PBS. The various photos 1000 can show the state of the two solutions over a 360 minute time period.
Both solutions begin colorless, wherein the solutions become discolored in response to oxidation.

`CN1CCc2cccc3c2[C@H]1Cc1ccc(O)c(O)c1-3` [AMP, apomorphine]: the onset of oxidation entry was “nearly immediately”.
